Reference: patent US9333202B2, “Non-retinoid antagonists for treatment of age-related macular degeneration and stargardt disease” (THE TRUSTEES OF COLUMBIA UNIVERSITY IN THE CITY OF NEW YORK, priority 2012, dated 2016)
Entries after “also recorded” stand apart in the source; their conditions may differ.

Assays:
[1] = molecular target: RBP4-TTR interaction (Homo sapiens, UniProt P02753); test: HTRF/TR-FRET assay for retinol-dependent RBP4-TTR interaction (1 μM retinol); format: biochemical; design: human RBP4 fragment (amino acids 19-201) was expressed in the Gold(DE3)pLysS E. coli strain; made in house; host or cells: E. coli Gold(DE3)pLysS (Stratagene), pMAL-c4x vector
Description: Bacterially expressed MBP-RBP4 and untagged TTR were used in this assay. For the use in the TR-FRET assay the maltose binding protein (MBP)-tagged human RBP4 fragment (amino acids 19-201) was expressed in the Gold(DE3)pLysS E. coli strain (Stratagene) using the […] vector. Following cell lysis, recombinant RBP4 was purified from the soluble fraction using the ACTA FPLC system (GE Healthcare) equipped with the 5-ml the MBP Trap HP column. Human untagged TTR was purchased from Calbiochem. Untagged TTR was labeled directly with Eu^3+ Cryptate-NHS using the HTRF Cryptate Labeling kit from CisBio following the manufacturer's recommendations. HTRF assay was performed in white low volume 384 well plates (Greiner-Bio) in a final assay volume of 16 μl per well. The reaction buffer contained 10 mM Tris-HCl pH 7.5, 1 mM DTT, 0.05% NP-40, 0.05% Prionex, 6% glycerol, and 400 mM KF. Each reaction contained 60 nM MBP-RBP4 and 2 nM TTR-Eu along with 26.7 nM of anti-MBP antibody conjugated with d2 (Cisbio). Titration of test compounds in this assay was conducted in the presence of 1 μM retinol. All reactions were assembled in the dark under dim red light and incubated overnight at +4° C. wrapped in aluminum foil. TR-FRET signal was measured in the SpectraMax M5e Multimode Plate Reader (Molecular Device). Fluorescence was excited at 337 nm and two readings per well were taken: Reading 1 for time-gated energy transfer from Eu(K) to d2 (337 nm excitation, 668 nm emission, counting delay 75 microseconds, counting window 100 microseconds) and Reading 2 for Eu(K) time-gated fluorescence (337 nm excitation, 620 nm emission, counting delay 400 microseconds, counting window 400 microseconds). The TR-FRET signal was expressed as the ratio of fluorescence intensity: Flu665/Flu620×10,000.

[2] = molecular target: T1, human RBP4 (Homo sapiens, UniProt P02753); test: Scintillation proximity (SPA) RBP4 binding assay
T1 construct: Untagged human RBP4 purified from urine of tubular proteinuria patients; purchased Fitzgerald Industries International; host or cells: human urine (tubular proteinuria patients)
Experimental: Untagged human RBP4 purified from urine of tubular proteinuria patients was purchased from Fitzgerald Industries International. It was biotinylated using the EZ-Link Sulfo-NHS-LC-Biotinylation kit from Pierce following the manufacturer's recommendations. Binding experiments were performed in 96-well plates (OptiPlate, PerkinElmer) in a final assay volume of 100 μl per well in SPA buffer (1×PBS, pH 7.4, 1 mM EDTA, 0.1% BSA, 0.5% CHAPS). The reaction mix contained 10 nM ^3H-Retinol (48.7 Ci/mmol; PerkinElmer), 0.3 mg/well Streptavidin-PVT beads, 50 nM biotinylated RBP4 and a test compound. Nonspecific binding was determined in the presence of 20 μM of unlabeled retinol. The reaction mix was assembled in the dark under dim red light. The plates were sealed with clear tape (TopSeal-A: 96-well microplate, PerkinElmer), wrapped in the aluminum foil, and allowed to equilibrate 6 hours at room temperature followed by overnight incubation at +4° C. Radiocounts were measured using a TopCount NXT counter (Packard Instrument Company).

Compound | Antagonism of RBP4-TTR interaction in vitro (in words) [1] | further results
O=C(O)c1ccccc1NC(=O)N1CCN(c2ncncc2C(F)(F)F)CC1 [Compound 63] | antagonize RBP4-TTR interaction in vitro at biologically significant concentrations | 
FC(F)(F)c1cccc(CCN2CCN(c3ncccc3C(F)(F)F)CC2)c1 [Compound 17] | antagonize RBP4-TTR interaction in vitro at biologically significant concentrations | 
CS(=O)(=O)c1ccc(NC(=O)N2CCC(c3ccccc3C(F)(F)F)CC2)c(C(=O)O)c1 [Compound 64] | antagonize retinol-dependent RBP4-TTR interaction; also recorded: antagonize RBP4-TTR interaction in vitro at biologically significant concentrations | Binding to RBP4 in vitro (in words) [2]: bind to RBP4; IC50 ([2]; 10 nM 3H-retinol, 50 nM biotinylated RBP4, each value one experiment, read-out: IC50 in SPA-based RBP4 binding assay): 49.8 nM; IC50 ([1]; in the presence of 1 μM retinol, each value one experiment, read-out: IC50 in HTRF-based retinol-dependent RBP4-TTR interaction assay): 1270 nM
O=C(c1ccnc(C(F)(F)F)c1)N1CCC(c2ccccc2C(F)(F)F)CC1 [Compound 39] | antagonize RBP4-TTR interaction in vitro at biologically significant concentrations | 
O=C(c1ccc(F)c(C(F)(F)F)c1)N1CCC(c2ccccc2C(F)(F)F)CC1 [Compound 35] | antagonize RBP4-TTR interaction in vitro at biologically significant concentrations | 
FC(F)(F)c1cccc(CCN2CCN(c3ncnc4sc5c(c34)CCC5)CC2)c1 [Compound 20] | antagonize RBP4-TTR interaction in vitro at biologically significant concentrations | 
Cc1ccnc(N2CCC(c3ccccc3C(F)(F)F)CC2)n1 [Compound 43] | antagonize RBP4-TTR interaction in vitro at biologically significant concentrations | 
COC(=O)c1cc(C)nc(N2CCC(c3ccccc3C(F)(F)F)CC2)n1 [Compound 45] | antagonize RBP4-TTR interaction in vitro at biologically significant concentrations | 
Cn1cnc(C(=O)N2CCC(c3ccccc3C(F)(F)F)CC2)c1 [Compound 49] | antagonize RBP4-TTR interaction in vitro at biologically significant concentrations | 
O=C(Cc1ccccc1C(F)(F)F)N1CCN(c2ncnc3sc4c(c23)CCC4)CC1 [Compound 22] | antagonize RBP4-TTR interaction in vitro at biologically significant concentrations | 
Cn1nc(C(F)(F)F)cc1C(=O)N1CCC(c2ccccc2C(F)(F)F)CC1 [Compound 52] | antagonize RBP4-TTR interaction in vitro at biologically significant concentrations | 
O=C(Cc1ccccc1C(F)(F)F)N1CCC(c2ccccc2C(F)(F)F)CC1 [Compound 38] | antagonize RBP4-TTR interaction in vitro at biologically significant concentrations | 
O=C(c1cc(C(F)(F)F)[nH]n1)N1CCC(c2ccccc2C(F)(F)F)CC1 [Compound 53] | antagonize RBP4-TTR interaction in vitro at biologically significant concentrations | 
Cn1cncc1C(=O)N1CCC(c2ccccc2C(F)(F)F)CC1 [Compound 51] | antagonize RBP4-TTR interaction in vitro at biologically significant concentrations | 
FC(F)(F)c1ccnc(N2CCC(c3ccccc3C(F)(F)F)CC2)n1 [Compound 44] | antagonize RBP4-TTR interaction in vitro at biologically significant concentrations | 
COC(=O)c1cccc(C(=O)N2CCC(c3ccccc3C(F)(F)F)CC2)c1 [Compound 37] | antagonize RBP4-TTR interaction in vitro at biologically significant concentrations | 
O=C(O)c1cc(-c2ccc(F)cc2)ccc1NC(=O)N1CCC(c2ccccc2C(F)(F)F)CC1 [Compound 57] | antagonize RBP4-TTR interaction in vitro at biologically significant concentrations | 
O=C(c1ccc(C(F)(F)F)cc1F)N1CCC(c2ccccc2C(F)(F)F)CC1 [Compound 32] | antagonize RBP4-TTR interaction in vitro at biologically significant concentrations | 

Compound | Antagonism of RBP4-TTR interaction in vitro (in words) [1] | further results
FC(F)(F)c1ccccc1C1CCN(c2ncccn2)CC1 [Compound 42] | antagonize RBP4-TTR interaction in vitro at biologically significant concentrations | 
O=C(c1cccc(C(F)(F)F)c1)N1CCC(c2ccccc2C(F)(F)F)CC1 [Compound 34] | antagonize RBP4-TTR interaction in vitro at biologically significant concentrations | 
COC(=O)c1ccccc1NC(=O)N1CCC(c2ccccc2C(F)(F)F)CC1 [Compound 59] | antagonize RBP4-TTR interaction in vitro at biologically significant concentrations | 
COC(=O)c1ccc(Cl)cc1NC(=O)N1CCC(c2ccccc2C(F)(F)F)CC1 [Compound 60] | antagonize RBP4-TTR interaction in vitro at biologically significant concentrations | 
O=C(c1ccco1)N1CCC(c2ccccc2C(F)(F)F)CC1 [Compound 55] | antagonize RBP4-TTR interaction in vitro at biologically significant concentrations | 
O=C(O)c1cc(-c2ccccc2)ccc1NC(=O)N1CCC(c2ccccc2C(F)(F)F)CC1 [Compound 56] | antagonize RBP4-TTR interaction in vitro at biologically significant concentrations | 
O=C(c1cnccc1C(F)(F)F)N1CCC(c2ccccc2C(F)(F)F)CC1 [Compound 40] | antagonize RBP4-TTR interaction in vitro at biologically significant concentrations | 
O=C(c1cn(Cc2ccccc2)cn1)N1CCC(c2ccccc2C(F)(F)F)CC1 [Compound 50] | antagonize RBP4-TTR interaction in vitro at biologically significant concentrations | 
O=C(c1nccs1)N1CCC(c2ccccc2C(F)(F)F)CC1 [Compound 54] | antagonize RBP4-TTR interaction in vitro at biologically significant concentrations | 
Fc1cnc(N2CCC(c3ccccc3C(F)(F)F)CC2)nc1 [Compound 47] | antagonize RBP4-TTR interaction in vitro at biologically significant concentrations | 
O=C(c1ccc(Cl)c(C(F)(F)F)c1)N1CCC(c2ccccc2C(F)(F)F)CC1 [Compound 36] | antagonize RBP4-TTR interaction in vitro at biologically significant concentrations | 
FC(F)(F)c1cccc(CN2CCN(c3ncnc4sc5c(c34)CCC5)CC2)c1 [Compound 21] | antagonize RBP4-TTR interaction in vitro at biologically significant concentrations | 
COC(=O)c1cc(Br)ccc1NC(=O)N1CCC(c2ccccc2C(F)(F)F)CC1 [Compound 61] | antagonize RBP4-TTR interaction in vitro at biologically significant concentrations | 
FC(F)(F)c1ccccc1C1CCN(c2nccc(-c3ccccc3)n2)CC1 [Compound 46] | antagonize RBP4-TTR interaction in vitro at biologically significant concentrations | 
O=C(c1cc(C(F)(F)F)ccn1)N1CCC(c2ccccc2C(F)(F)F)CC1 [Compound 41] | antagonize RBP4-TTR interaction in vitro at biologically significant concentrations | 
CS(=O)(=O)c1ccc(-c2ccc(NC(=O)N3CCC(c4ccccc4C(F)(F)F)CC3)c(C(=O)O)c2)cc1 [Compound 58] | antagonize RBP4-TTR interaction in vitro at biologically significant concentrations | 
O=C(c1ccc(C(F)(F)F)c(F)c1)N1CCC(c2ccccc2C(F)(F)F)CC1 [Compound 33] | antagonize RBP4-TTR interaction in vitro at biologically significant concentrations | 
